According to patent publication US7094789B2, “5-substituted isoquinoline derivatives” (Asahi Kasei Pharma Corporation, priority 2002, dated 2006):

How the values were obtained:
[1] = test system: thoracic aorta constricted with phenylephrine; experiment: Vasoconstriction inhibitory action (Test Example 2); set-up: species or system Rats (Wistar); conditions: test compound 1 μM; aorta constricted with phenylephrine 1 μM
Text: Rats (Wistar, 11-week old) were bleeded to death and laparotomized to take out the thoracic aorta. That aorta was cut into a ring of a length of about 3 mm in a conventional manner (Asano, T., et al., J. Pharmacol. Exp. Ther., 241, pp. 1033–1040 (1987)) and hung in 10-ml organ bath filled with Krebs-Hensright nutrient solution bubbled with a mixed gas of 95% O2 and 5% CO2. One end of the blood vessel was connected to an isometric transducer (FD Pickup TB-912T, Nihon Kohden) and applied with 2.5 g of resting tension, and constriction and relaxation reactions of the aorta were recorded. The aorta was constricted with phenylephrine (1 μM, Sigma) and then added with a test compound (1 μM), and the vasoconstriction inhibitory action thereof was observed. The vasoconstriction inhibitory actions of the test compounds are shown in Table 6 mentioned below as the relaxation ratios, which are based on the vasoconstriction with phenylephrine immediately before the addition of the test compound taken as 100%.

[2] = test system: phosphorylated myosin regulatory light chain; experiment: Action on amount of phosphorylated myosin regulatory light chain in the cells (Test Example 1); type: cell-based; conditions: Homo sapiens, Neutrophil, 5 min, human neutrophils; reaction with test compound at 25° C. for 5 minutes; read-out: Inhibition of myosin regulatory light chain phosphorylation (IC50: μM)
Protocol: A volume of 50 to 100 ml of peripheral blood collected from healthy volunteers was centrifuged by using Mono-Poly separator solution (Dainippon Pharmaceutical) to prepare a neutrophil containing fraction. The neutrophils were washed with PBS(−) and resuspended in Hanks' Balanced Salt Solution (HBSS+, Gibco) to prepare a cell suspension (8×10^6/ml). The cell suspension was diluted to 5×10^6/ml, introduced into Eppendorf tubes in a volume of 0.4 ml each, then 0.1 ml each of solutions of a test compound at various concentrations were added to the suspension and allowed to react at 25° C. for 5 minutes. […]
The gel after the electrophoresis was blotted on a nitrocellulose membrane (BioRad), blocked with 5% skim milk, and reacted successively with antibodies pLC1 (Sakurada K. et al, Am. J. Physiol., 274, C1563–C1572 (1998)), which specifically recognize the phosphorylated myosin regulatory light chain, and donkey anti-mouse IgG (Chemicon) conjugated with horseradish peroxidase (HRP-labeled). The band of the phosphorylated myosin regulatory light chain was detected on a film by using ECL Plus Kit (Amersham Pharmacia Biotech). This band was subjected to quantification using a densitometer. By using this value, the inhibitory ratio (%) for phosphorylation of the myosin regulatory light chain was calculated by using the following equation. […]

neutrophils = experiment: Neutrophil migration inhibitory action (Test Example 5); type: cell-based; conditions: Homo sapiens, 0.5 h, FMLP 1 μM, Boyden Chamber, 37° C., 30 minutes, read-out: Neutrophil migration inhibition IC50
Protocol: Neutrophils were isolated from 50 to 100 ml of peripheral blood collected from healthy donors by the method described in Test Example 1 to obtain a cell suspension (8×10^6/ml). Subsequently, solutions of a test compound at various concentrations were introduced into wells of a 96-well plate in a volume of 125 μl per well, the cell suspension of an equivalent volume was added to it and the plate was preincubated at room temperature for 5 minutes. During the preincubation, FMLP (1 μM, Sigma) solution was added to the lower chamber to set Boyden Chamber, the preincubated cell suspension was added to the upper chamber in a volume of 200 μl per well, and the cells were allowed to migrate at 37° C. under 5% carbon dioxide for 30 minutes. The filter after the migration was collected, and the non-migrated cells adhered to the surface that faced the upper chamber were carefully wiped off. Then, the migrated cells on the back surface were stained with DifQuick dye solution (International Reagents), washed with water and dried, and then absorbance was measured at 595 nm. The inhibition ratio against migration (%) of a test compound was calculated by using the following equation: Migration inhibition ratio (%)=(1−Absorbance of the group with addition of test compound/Absorbance of the group without addition of test compound)×100 […]

CC1CNCCN1S(=O)(=O)c1cccc2cnccc12 (stereo not drawn) [Example H-7, 1-(5-Isoquinolinesulfonyl)-2-methylpiperazine]
Vasoconstriction inhibitory action (relaxation ratio) (%) [1]: 22.0% | IC50 [2]: 80 µM | IC50 (neutrophils): > 40 µM
